We go through 14 compounds from patent US6664277B1, “Prenylation inhibitors containing dimethylcyclobutane and methods of their synthesis and use” (PPD Discovery, Inc., priority 2002, dated 2003).

The assay addresses T1, GGPTase I (Rattus norvegicus, UniProt P53610+Q04631).
T1 construct: made in house; host or cells: Sf9 insect cells (baculovirus co-infection)
The assay is described as follows: GGPTase I inhibition assay ([3H]GGPP transfer to Ras-CVLL). Particulars: test compound 100 nM, mixtures of regioisomers and/or enantiomers unless indicated. It counts as biochemical. The procedure: GGPTase-I activity was determined by the method of Casey et al, Proc. Natl. Acad. Sci. USA, 1991, 88, 8631-8635. This method measures the transfer of isoprenoid from ^3H-geranylgeranyl diphosphate (GGPP) into a Ras protein with a C-terminal leucine-for-serine substitution (designated as Ras-CVLL).
Assays for the inhibition studies of GGPTase I were performed in a manner analogous to that described by Casey, et al., Proc. Natl. Acad. Sci. USA, 1991, 88, 8631-8635, with the following modifications. For those assays, the reaction mixtures contained the following components in 50 μl:0.25 μM [^3H]GGPP (sp. act. 8-10 Ci/mmol), 2.5 μM Ras-CVLL, 50 mM Tris-Cl, pH 7.7, 20 mM KCl, 5 mM MgCl2, 5 μM ZnCl2, 1 mM DTT, 0.5 mM Zwittergent 3-14 and the desired amount of the compound to be tested for inhibitory potential. After pre-equilibrating the assay mixture at 30° C. in the absence of the enzyme, the reaction was initiated by addition of the enzyme (75 ng). Following an about 10 minute incubation at about 30° C., the reactions were terminated by addition of about 0.5 ml of about 4% SDS. About 40 mg of bovine brain membranes was added to the samples to enhance recovery during precipitation. Product was precipitated by addition of about 0.5 ml of 30% TCA, allowed to stand at room temperature for about 15 minutes, and processed by filtration through glass-fiber filters as described previously (Reiss et al., Methods: Companion to Methods in Enzymology, 1991, 1, 241-245). Reactions were never allowed to proceed to more than 10% completion based on the limiting substrate. Assays for the inhibition studies of FPTase were performed analogous the GGPTase I inhibition studies, except [^3H]GGPP was replaced with 0.25 μM of [^3H]FPP (sp. act. 8-10 ci/mmol) and Ras-CVLL was replaced with 1 μM H-Ras.
Using the method described above, the GGPTase I inhibitory activities of some of the compounds of the present invention were evaluated. The concentration of the test compound used was 100 nM. Mixtures of regioisomers and/or enantiomers are used unless indicated otherwise (for example, the position of substituents on the dimethyl cyclobutane moiety).

T1 sequence (P53610 whole entry, one chain of several): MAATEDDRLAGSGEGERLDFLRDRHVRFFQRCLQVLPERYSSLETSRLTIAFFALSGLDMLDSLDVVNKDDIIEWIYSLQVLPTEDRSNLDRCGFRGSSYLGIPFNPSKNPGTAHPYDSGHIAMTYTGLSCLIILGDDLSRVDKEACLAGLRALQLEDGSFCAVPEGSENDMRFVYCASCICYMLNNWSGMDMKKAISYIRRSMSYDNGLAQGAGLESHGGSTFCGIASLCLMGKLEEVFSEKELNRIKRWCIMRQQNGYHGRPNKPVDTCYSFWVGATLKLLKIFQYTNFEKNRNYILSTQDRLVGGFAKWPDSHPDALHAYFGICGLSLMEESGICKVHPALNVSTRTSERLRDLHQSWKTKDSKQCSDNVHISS

Turning to `CN1CC[C@H](c2ccccc2)[C@H]1C(N)=O`, under “Table I”, the Inhibition entry is “Yes”.
Still for that read-out and setting: next, `CN1Cc2ccccc2C[C@H]1C(N)=O`: “Yes”.
For `CC1(C)[C@@H](CNC(=O)[C@@H](N)Cc2ccccc2)C[C@H]1c1cc(-c2cccnc2)nn1-c1ccc(Cl)c(Cl)c1`, the Inhibition entry (Table VI) is recorded as “yes”.
The same measure, in the same setting: next, `CN(C(=O)C[C@H]1C[C@H](c2cc(-c3cccnc3)nn2-c2ccc(Cl)c(Cl)c2)C1(C)C)C(Cc1ccccc1)C(N)=O` (stereo partly shown): “yes”.
On the same count and under the same terms, next, `CC1(C)[C@@H](CCNC(Cc2ccccc2)C(N)=O)C[C@H]1c1cc(-c2cccnc2)nn1-c1ccc(Cl)c(Cl)c1` (stereo partly shown): “no”.
Turning to `CC1(C)[C@@H](CC(=O)NC(Cc2ccccc2)C(N)=O)C[C@@H]1c1cc(-c2cccnc2)nn1-c1ccc(Cl)c(Cl)c1` (stereo partly shown) [Bn], for the setting “Table V”, the Inhibition entry is “yes”.
On to `CC1(C)[C@@H](CC(=O)NC(CO)Cc2ccccc2)C[C@@H]1c1cc(-c2cccnc2)nn1-c1ccc(Cl)c(Cl)c1` (stereo partly shown) [CH2OH], for which the Inhibition entry (Table II) was “yes” and the Inhibition result (Table V) is “yes”.
Consider `CC1(C)[C@@H](CC(=O)NC(Cc2ccccc2)C(=O)OCc2ccccc2)C[C@@H]1c1cc(-c2cccnc2)nn1-c1ccc(Cl)c(Cl)c1` (stereo partly shown) [CO2Bn], for which, for the setting “Table II”, the Inhibition result is “yes”.
On to `CC1(C)[C@@H](CC(=O)NC(Cc2ccccc2)C(=O)O)C[C@@H]1c1cc(-c2cccnc2)nn1-c1ccc(Cl)c(Cl)c1` (stereo partly shown) [CO2H], for which, where the note is “Table II”, the Inhibition entry is listed as “yes”.
The same measure, in the same setting: next, `COC(=O)C(Cc1ccccc1)NC(=O)C[C@H]1C[C@H](c2cc(-c3cccnc3)nn2-c2ccc(Cl)c(Cl)c2)C1(C)C` (stereo partly shown) [CO2Me]: “yes”; `CC1(C)[C@@H](CC(=O)NC(Cc2ccccc2)C(N)=O)C[C@@H]1c1cc(-c2cccnc2)nn1-c1ccc(Cl)c(Cl)c1` (stereo partly shown) [CONH2]: “yes”.
Same read-out and setting: the entry for `CNC(=O)C(Cc1ccccc1)NC(=O)C[C@H]1C[C@H](c2cc(-c3cccnc3)nn2-c2ccc(Cl)c(Cl)c2)C1(C)C` (stereo partly shown) [CONHMe] is “yes”.
For the compound `CC1(C)[C@@H](CC(=O)NCCc2ccccc2)C[C@@H]1c1cc(-c2cccnc2)nn1-c1ccc(Cl)c(Cl)c1` [H], the Inhibition entry (Table II) is listed as “yes” and the Inhibition entry (Table V) is “yes”.
In the case of `CC1(C)[C@@H](CC(=O)NC(C(N)=O)c2ccccc2)C[C@@H]1c1cc(-c2cccnc2)nn1-c1ccc(Cl)c(Cl)c1` (stereo partly shown) [Ph], the Inhibition result (Table V) is reported as “yes”.
